# From US11491155B2, “Salt of a pyrimido[6,1-A]isoquinolin-4-one compound” (VERONA PHARMA PLC, priority 2015, dated 2022)
# Structures can show the parent of a compound that is named as a salt.
# What was measured:
# Type in all cases: physicochemical
# [1] = Primary particle size analysis by laser light diffraction (Mastersizer 2000); details: micronised, mean n=3
# Method: A Mastersizer 2000 fitted with a Scirocco 2000 dry powder dispersion unit (Malvern Instruments Ltd, UK) was used to analyse the primary particle size of the micronised RPL554 and salt variants. The salts (50 mg) were automatically sampled via a vibrating feed control at a feeder rate of 60% and dispersed in compressed air at a pressure of 3 bar.
# [2] = Solubility of RPL554 and salts in pMDI propellant systems
# How it was run: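 Ten actuations from each pMDI, three replicates per formulation, were filtered through a 0.20 μm filter into a vial cooled in dry ice/acetone, with about 10 s shaking between shots. The filtrate was evaporated to dryness, the residue recovered in 1 mL recovery solution and quantified by HPLC. The percent solubilised was taken against the starting RPL554 mass in the canister, computed from theoretical molecular weights of free base and salts.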
# [3] = Solubility of RPL554 salts in saline solutions, water and aqueous buffer solutions at 25° C. (HPLC); details: for Solubility as RPL554 (mg/ml) in 0.7 w/w % Saline / Solubility as RPL554 (mg/ml) in 0.9 w/w % Saline / Solubility as RPL554 (mg/ml) in 1.1 w/w % Saline / Solubility as RPL554 (mg/ml) in Water: 24 hours; for Solubility as RPL554 (mg/ml) in Water: deionised water
# How it was run: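 Salts or free base (ca 50 mg) suspended in 1 ml of buffered 0.9% saline (pH 3.5–6.5), 0.7–1.1% saline or deionised water, agitated 24 h at 25° C. Filtrates analysed by HPLC with single-point calibration; solubility expressed as RPL554 free base, not salt.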
# [4] = RPL554 content and content uniformity of 1% w/w lactose powder blends; details: for Measured Blend Content (% Theoretical): 1% w/w RPL554 variant: lactose powder blend, expressed as RPL554 base; for **Adjusted RPL554 Content per capsule: per 20 mg capsule of 1% w/w lactose blend, adjusted for measured blend content (% theoretical), as RPL554 base
# How it was run: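 RPL554 free base or salt was sieved (38 μm) with some lactose, mortar-mixed with the rest, and Turbula-blended for 10 min at 46 rpm to give 1% w/w blends. For uniformity, ~20 mg samples from each blend were diluted to 10 mL, sonicated for 3 min and assayed by HPLC.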
# [5] = Aerosol performance of DPI formulations (Cyclohaler, NGI); details: for †Measured Mass of 1% w/w Blend Delivered per capsule / ††RPL554 Emitted (μg) per capsule (B): Cyclohaler; for †Measured Mass of 1% w/w Blend Delivered per capsule: 5 capsules containing 20 mg powder blend, mass from weight change of capsule-loaded device; for ††RPL554 Emitted (μg) per capsule (B): NGI, mass determined from HPLC analysis of recovered samples; for ††RPL554 Emitted (μg) per capsule (B) / Calculated RPL554 Content (μg) per capsule (A): as RPL554 base; for Calculated RPL554 Content (μg) per capsule (A): calculated from delivered blend mass and measured blend content
# How it was run: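 Capsules held 20 mg of 1% w/w RPL554 free base or salt:lactose blend (200 μg salt, not adjusted for molecular weight). Fired from Cyclohaler at 90 L/min for 2.7 s into NGI with pre-separator, 5 capsules per formulation; drug recovered from device, induction port and stages to derive ED, FPD, FPF.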
# [6] = Intrinsic dissolution of compressed tablet, pH 7.0, 37° C. (Sirius inForm); details: for Mass of salt (μg) dissolved after 2 hours, Average / Mass of salt (μg) dissolved after 2 hours, Test 1 / Mass of salt (μg) dissolved after 2 hours, Test 2: pH 7.0, 0.15 M NaCl, 37° C.
# How it was run: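 Compressed 3 mm tablet (~10 mg, 100 kg load), one face exposed, dissolved in pH 7.0 aqueous medium (0.15 M NaCl, 0.01 M acetate/phosphate buffer) at 37° C., stirred at 100 rpm for 2 h. UV absorbance (<1.3) converted to dissolved weight via pH-dependent molar extinction coefficients.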
# [7] = in HFA 134 with Ethanol/Tween, hydrochloride
# [8] = listed as hydrochloride salt, hydrochloride
# [9] = HFA 227: 10% Ethanol: 0.1% Tween
# [10] = in HFA 134, listed as Ethane-1,2-disulfonate hemi-salt
# [11] = in HFA 134 with Ethanol/Tween, listed as Ethane-1,2-disulfonate hemi-salt
# [12] = listed as ethane-1,2-disulfonate salt
structure (smiles),measurement,setting,value
"COc1cc2c(cc1OC)-c1c/c(=N\c3c(C)cc(C)cc3C)n(CCNC(N)=O)c(=O)n1CC2 [Hydrochloride, RPL554 hydrochloride]",D (0.1) (μm),[1]; hydrochloride,0.53 μm
same,D (0.5) (μm),[1]; hydrochloride,1.37 μm
same,D (0.9) (μm),[1]; hydrochloride,3.47 μm
same,Solubility RPL554 (μg/g),"[2]; in HFA 134, BLQ = below limit of quantitation (0.06 μg/mL), hydrochloride",BLQ
same,Calculated RPL554 solubilised (%),"[2]; in HFA 134, hydrochloride",BLQ
same,Calculated Solubilised RPL554 μg per 50 μL actuation,"[2]; in HFA 134, hydrochloride",BLQ
same,Estimated RPL554 solubilised (%),[2]; [7],5.27%
same,Estimated Solubilised RPL554 μg per 50 μL actuation,[2]; [7],9.79 µg
same,Solubility RPL554,[2]; [7],149.17 µg/g
same,Calculated RPL554 solubilised (%),[2]; in HFA 227,BLQ
same,Calculated Solubilised RPL554 μg per 50 μL actuation,[2]; in HFA 227,BLQ
same,Solubility RPL554 (μg/g),[2]; in HFA 227,BLQ
same,Solubility as RPL554 (mg/ml) in 0.7 w/w % Saline,[3]; hydrochloride,2.85 mg/mL
same,Solubility as RPL554 (mg/ml) in 0.9 w/w % Saline,[3]; hydrochloride,1.93 mg/mL
same,Solubility as RPL554 (mg/ml) in 1.1 w/w % Saline,[3]; hydrochloride,2.48 mg/mL
same,Solubility as RPL554 (mg/ml) in Water,[3]; hydrochloride,12.66 mg/mL
same,solubility at 24 h,"[3]; phosphate buffer in 0.9% w/w saline, 25 °C, pH 6.5, aqueous buffer, thermodynamic from solid, in saline 0.9% w/w, read-out: Solubility as RPL554 (mg/ml) in buffer solution pH 6.5, Phosphate",0.02 mg/mL
same,Measured Blend Content (% Theoretical),[4]; hydrochloride,84.42 % Theoretical
same,**Adjusted RPL554 Content per capsule,[4]; hydrochloride,156.86 µg
same,†Measured Mass of 1% w/w Blend Delivered per capsule,[5]; hydrochloride,20.14 mg
same,††RPL554 Emitted (μg) per capsule (B),[5]; hydrochloride,102.27 µg
same,Calculated RPL554 Content (μg) per capsule (A),[5]; hydrochloride,157.96 µg
same,"Mass of salt (μg) dissolved after 2 hours, Average",[6]; [8],35.6 µg
same,"Mass of salt (μg) dissolved after 2 hours, Test 1",[6]; [8],31.7 µg
same,"Mass of salt (μg) dissolved after 2 hours, Test 2",[6]; [8],39.4 µg
"COc1cc2c(cc1OC)-c1c/c(=N\c3c(C)cc(C)cc3C)n(CCNC(N)=O)c(=O)n1CC2 [Sulfate, RPL554 sulfate]",D (0.1) (μm),[1],0.51 μm
same,D (0.5) (μm),[1],1.12 μm
same,D (0.9) (μm),[1],2.30 μm
same,Calculated RPL554 solubilised (%),[2]; in HFA 134,BLQ
same,Calculated Solubilised RPL554 μg per 50 μL actuation,[2]; in HFA 134,BLQ
same,Solubility RPL554 (μg/g),"[2]; in HFA 134, BLQ = below limit of quantitation (0.06 μg/mL)",BLQ
same,Estimated RPL554 solubilised (%),[2]; in HFA 134 with Ethanol/Tween,2.84%
same,Estimated Solubilised RPL554 μg per 50 μL actuation,[2]; in HFA 134 with Ethanol/Tween,4.71 µg
same,Solubility RPL554,[2]; in HFA 134 with Ethanol/Tween,73.19 µg/g
same,Calculated RPL554 solubilised (%),[2]; in HFA 227,BLQ
same,Calculated Solubilised RPL554 μg per 50 μL actuation,[2]; in HFA 227,BLQ
same,Solubility RPL554 (μg/g),[2]; in HFA 227,BLQ
same,Solubility as RPL554 (mg/ml) in 0.7 w/w % Saline,[3],2.78 mg/mL
same,Solubility as RPL554 (mg/ml) in 0.9 w/w % Saline,[3],1.94 mg/mL
same,Solubility as RPL554 (mg/ml) in 1.1 w/w % Saline,[3],1.35 mg/mL
same,Solubility as RPL554 (mg/ml) in Water,[3],12.11 mg/mL
same,Measured Blend Content (% Theoretical),[4],73.50 % Theoretical
same,**Adjusted RPL554 Content per capsule,[4],121.95 µg
same,†Measured Mass of 1% w/w Blend Delivered per capsule,[5],19.78 mg
same,††RPL554 Emitted (μg) per capsule (B),[5],79.35 µg
same,Calculated RPL554 Content (μg) per capsule (A),[5],120.61 µg
same,dissolution compared with free base / other salts,[6]; 2 hour experiments,higher dissolution than the rest of the salts
same,dissolution behaviour over 24 hours,[6]; 24 hours experiment,did start to precipitate slowly but still remained highly supersaturated even after 24 hrs
same,maximum pH change (decrease) during dissolution,"[6]; nominal start pH 7, listed as sulfate salt",about 0.15 pH units
same,"Mass of salt (μg) dissolved after 2 hours, Average",[6]; listed as sulfate salt,6205 µg
same,"Mass of salt (μg) dissolved after 2 hours, Test 1",[6]; listed as sulfate salt,5910 µg
same,"Mass of salt (μg) dissolved after 2 hours, Test 2",[6]; listed as sulfate salt,6500 µg
"COc1cc2c(cc1OC)-c1c/c(=N\c3c(C)cc(C)cc3C)n(CCNC(N)=O)c(=O)n1CC2 [Ethane-1,2-disulfonate, RPL554 ethane-1,2-disulfonate]",D (0.1) (μm),[1],0.52 μm
same,D (0.5) (μm),[1],1.25 μm
same,D (0.9) (μm),[1],2.78 μm
same,Estimated Solubilised RPL554 μg per 50 μL actuation,[2]; [9],0.11 µg
same,Solubility RPL554,[2]; [9],1.69 µg/g
same,Estimated RPL554 solubilised (%),"[2]; HFA 227: 10% Ethanol: 0.1% Tween, listed as Ethane-1,2-disulfonate hemi-salt",0.07%
same,Solubility RPL554 (μg/g),"[2]; in HFA 134, BLQ = below limit of quantitation (0.06 μg/mL), listed as Ethane-1,2-disulfonate hemi-salt",BLQ
same,Calculated RPL554 solubilised (%),[2]; [10],BLQ
same,Calculated Solubilised RPL554 μg per 50 μL actuation,[2]; [10],BLQ
same,Solubility RPL554,[2]; in HFA 134 with Ethanol/Tween,5 µg/g
same,Estimated RPL554 solubilised (%),[2]; [11],0.20%
same,Estimated Solubilised RPL554 μg per 50 μL actuation,[2]; [11],0.34 µg
same,Solubility RPL554,[2]; [11],5.13 µg/g
same,Calculated RPL554 solubilised (%),[2]; in HFA 227,BLQ
same,Calculated Solubilised RPL554 μg per 50 μL actuation,[2]; in HFA 227,BLQ
same,Solubility RPL554 (μg/g),[2]; in HFA 227,BLQ
same,Solubility as RPL554 (mg/ml) in 0.7 w/w % Saline,[3],4.79 mg/mL
same,Measured Blend Content (% Theoretical),[4],80.18 % Theoretical
same,**Adjusted RPL554 Content per capsule,[4],133.73 µg
same,†Measured Mass of 1% w/w Blend Delivered per capsule,[5],19.90 mg
same,††RPL554 Emitted (μg) per capsule (B),[5],87.91 µg
same,Calculated RPL554 Content (μg) per capsule (A),[5],133.06 µg
same,"Mass of salt (μg) dissolved after 2 hours, Average",[6]; [12],28.0 µg
same,"Mass of salt (μg) dissolved after 2 hours, Test 1",[6]; [12],21.1 µg
same,"Mass of salt (μg) dissolved after 2 hours, Test 2",[6]; [12],34.9 µg
